Data published in ChEMBL document CHEMBL1128456, “Synthesis and biological evaluation of N6-cycloalkyl derivatives of 1-deazaadenine nucleosides: a new class of anti-human immunodeficiency virus agents” (J Med Chem, 1995).

Key:
[1] = In vitro evaluation of cytotoxicity in C8166 cells infected with HIV-1 IIIB.; format: cell-based; conditions: human, read-out: TC50 (the source's name)
Adenosine deaminase = target: T1, Adenosine deaminase (Bos taurus, UniProt P56658); test: Inhibition calf intestine adenosine deaminase
T1 sequence (P56658 whole entry): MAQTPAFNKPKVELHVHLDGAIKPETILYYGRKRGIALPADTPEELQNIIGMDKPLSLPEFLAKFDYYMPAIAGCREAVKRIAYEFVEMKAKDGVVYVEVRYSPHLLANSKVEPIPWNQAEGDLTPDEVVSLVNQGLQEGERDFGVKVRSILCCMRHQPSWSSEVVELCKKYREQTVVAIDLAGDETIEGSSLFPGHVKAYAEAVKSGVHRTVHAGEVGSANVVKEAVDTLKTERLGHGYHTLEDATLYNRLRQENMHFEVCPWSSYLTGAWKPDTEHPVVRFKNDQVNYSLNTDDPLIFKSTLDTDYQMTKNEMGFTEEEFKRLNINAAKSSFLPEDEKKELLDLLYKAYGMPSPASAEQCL

[2] = tested on: Human immunodeficiency virus 1; test: In vitro evaluation of anti-HIV-1 activity in C8166 cells infected with HIV-1 IIIB.; format: functional; conditions: Human immunodeficiency virus 1, C8166; read-out: ED50 (the source's name)

| Structure (SMILES) | CC50 [1] [µM] | Ki (Adenosine deaminase) [µM] | EC50 [2] [µM] |
| --- | --- | --- | --- |
| CNc1ccnc2c1ncn2C1CCC(CO)O1 (stereo unspecified) | 100 | 2.2 | 50 |
| OCC1CCC(n2cnc3c(NC4CCCCC4)ccnc32)O1 (stereo unspecified) | 50 | 69 | 40 |
| OC[C@H]1O[C@@H](n2cnc3c(NC4CCCCCCC4)cc(Cl)nc32)C[C@@H]1O | 40 | > 100 | 2 |
| OC[C@H]1OC(n2cnc3c(NC4CCCCCC4)cc(Cl)nc32)[C@H](O)[C@@H]1O (stereo partly specified) | 50 | > 100 | 8 |
| OC[C@H]1O[C@@H](n2cnc3c(NC4CCCCC4)ccnc32)C[C@@H]1O | 100 | > 100 | 8 |
| OC[C@H]1O[C@@H](n2cnc3c(NC4CCCCC4)cc(Cl)nc32)[C@H](O)[C@@H]1O | 50 | > 100 | 20 |
| OCC1CCC(n2cnc3c(NC4CCCCCCC4)ccnc32)O1 (stereo unspecified) | 10 | > 100 | 0.8 |
| OC[C@H]1O[C@@H](n2cnc3c(NC4CCCC4)cc(Cl)nc32)[C@H](O)[C@@H]1O | 100 | > 100 | 10 |
| Nc1ccnc2c1ncn2[C@H]1C[C@H](O)[C@@H](CO)O1 | > 100 | 0.19 | > 100 |
| OC[C@H]1O[C@@H](n2cnc3c(NC4CC4)cc(Cl)nc32)[C@H](O)[C@@H]1O | 500 | > 100 | 30 |
| OC[C@H]1O[C@@H](n2cnc3c(NC4CCCCC4)ccnc32)[C@H](O)[C@@H]1O | 400 | > 100 | 100 |
| OC[C@H]1O[C@@H](n2cnc3c(NC4CCCCCCC4)ccnc32)C[C@@H]1O | 40 | 59 | 4 |
| CNc1cc(Cl)nc2c1ncn2C1CCC(CO)O1 (stereo unspecified) | > 100 | 11 | > 100 |
| OCC1CCC(n2cnc3c(NC4CC4)ccnc32)O1 (stereo unspecified) | 750 | 78 | 100 |
| OC[C@H]1O[C@@H](n2cnc3c(NC4CCCC4)cc(Cl)nc32)C[C@@H]1O | 7 | > 100 | 0.8 |
| OC[C@H]1OC(n2cnc3c(NC4CCCCCCC4)ccnc32)[C@H](O)[C@@H]1O (stereo partly specified) | 50 | 80 | 4 |
| OC[C@H]1O[C@@H](n2cnc3c(NC4CCCC4)ccnc32)C[C@@H]1O | 400 | 22 | 40 |
| Nc1ccnc2c1ncn2[C@@H]1O[C@H](CO)[C@@H](O)[C@H]1O | 2 | 0.38 | > 100 |
| OCC1CCC(n2cnc3c(NC4CCC4)cc(Cl)nc32)O1 (stereo unspecified) | 250 | > 100 | 4 |
| OC[C@H]1O[C@@H](n2cnc3c(NC4CC4)cc(Cl)nc32)C[C@@H]1O | 500 | 75 | 8 |
| Nc1cc(Cl)nc2c1ncn2[C@H]1C[C@H](O)[C@@H](CO)O1 | > 100 | 23 | > 100 |
| Nc1ncnc2c1ncn2[C@H]1CC[C@@H](CO)O1 | > 100 | – | 2 |
| OC[C@H]1O[C@@H](n2cnc3c(NC4CC4)ccnc32)C[C@@H]1O | > 100 | 50 | > 100 |
| OC[C@H]1O[C@@H](n2cnc3c(NC4CCCCCC4)ccnc32)C[C@@H]1O | 80 | 42 | 30 |
| OCC1CCC(n2cnc3c(NC4CCCCCC4)cc(Cl)nc32)O1 (stereo unspecified) | 8 | > 100 | 0.8 |

| Structure (SMILES) | CC50 [1] [µM] | Ki (Adenosine deaminase) [µM] | EC50 [2] [µM] |
| --- | --- | --- | --- |
| CNc1cc(Cl)nc2c1ncn2[C@H]1C[C@H](O)[C@@H](CO)O1 | > 100 | 4.2 | > 100 |
| CNc1cc(Cl)nc2c1ncn2C1O[C@H](CO)[C@@H](O)[C@H]1O (stereo partly specified) | > 100 | 69 | > 100 |
| OCC1CCC(n2cnc3c(NC4CCCCC4)cc(Cl)nc32)O1 (stereo unspecified) | 20 | > 100 | 4 |
| OC[C@H]1O[C@@H](n2cnc3c(NC4CCC4)cc(Cl)nc32)C[C@@H]1O | 400 | > 100 | 4 |
| OC[C@H]1O[C@@H](n2cnc3c(NC4CC4)ccnc32)[C@H](O)[C@@H]1O | > 100 | 38 | > 100 |
| Nc1ccnc2c1ncn2C1CCC(CO)O1 (stereo unspecified) | > 100 | 2.5 | > 100 |
| OC[C@H]1OC(n2cnc3c(NC4CCCCCCC4)cc(Cl)nc32)[C@H](O)[C@@H]1O (stereo partly specified) | 40 | 71 | 2 |
| OCC1CCC(n2cnc3c(NC4CCC4)ccnc32)O1 (stereo unspecified) | 400 | 92 | 50 |
| OC[C@H]1O[C@@H](n2cnc3c(NC4CCC4)cc(Cl)nc32)[C@H](O)[C@@H]1O | 400 | 97 | 100 |
| OC[C@H]1O[C@@H](n2cnc3c(NC4CCCCC4)cc(Cl)nc32)C[C@@H]1O | 100 | > 100 | 4 |
| Nc1cc(Cl)nc2c1ncn2C1CCC(CO)O1 (stereo unspecified) | > 100 | > 100 | > 100 |
| OCC1CCC(n2cnc3c(NC4CCCC4)cc(Cl)nc32)O1 (stereo unspecified) | 50 | > 100 | 20 |
| CNc1ccnc2c1ncn2C1O[C@H](CO)[C@@H](O)[C@H]1O (stereo partly specified) | > 100 | 12 | > 100 |
| OCC1CCC(n2cnc3c(NC4CC4)cc(Cl)nc32)O1 (stereo unspecified) | > 100 | > 100 | > 100 |
| OCC1CCC(n2cnc3c(NC4CCCCCCC4)cc(Cl)nc32)O1 (stereo unspecified) | 10 | > 100 | 0.4 |
| OCC1CCC(n2cnc3c(NC4CCCC4)ccnc32)O1 (stereo unspecified) | 500 | > 100 | 80 |
| OC[C@H]1O[C@@H](n2cnc3c(NC4CCCC4)ccnc32)[C@H](O)[C@@H]1O | 400 | > 100 | 16 |
| OC[C@H]1O[C@@H](n2cnc3c(NC4CCC4)ccnc32)[C@H](O)[C@@H]1O | > 100 | 100 | > 100 |
| OC[C@H]1O[C@@H](n2cnc3c(NC4CCCCCC4)cc(Cl)nc32)C[C@@H]1O | 5 | > 100 | 0.2 |
| OC[C@H]1OC(n2cnc3c(NC4CCCCCC4)ccnc32)[C@H](O)[C@@H]1O (stereo partly specified) | 100 | > 100 | 20 |
| OCC1CCC(n2cnc3c(NC4CCCCCC4)ccnc32)O1 (stereo unspecified) | 40 | 53 | 8 |
| CNc1ccnc2c1ncn2[C@H]1C[C@H](O)[C@@H](CO)O1 | > 100 | 0.25 | > 100 |
| Nc1cc(Cl)nc2c1ncn2[C@@H]1O[C@H](CO)[C@@H](O)[C@H]1O | > 100 | 30 | > 100 |
| OC[C@H]1O[C@@H](n2cnc3c(NC4CCC4)ccnc32)C[C@@H]1O | 400 | 97 | 20 |
